US20140235447A1, “METHODS FOR […] YIELD” (Syngenta Crop Protection LLC, priority 2013, published 2014)
Values joined by “and” are separate entries in the source; they are usually repeats but may differ in a detail not shown here. Equal entries are not always repeated.

Columns and labels:
Tropical corn = experiment: Treatment of tropical corn with single or multiple applications of 1-MCP, crop yield; assay type: in vivo; settings: for Yield increase in kg/ha, Single app. @ V3-5: single application at stage of 3-5 fully collared leaves; for Yield increase in kg/ha, Single app @ V10: single application at stage of 10 leaves; for Yield increase in kg/ha, Double app. @ V3&10: two applications, 3-5 fully collared leaves and 10 leaf stage
Method: Tropical corn is treated with a combination of extruded granules of dextrose containing 0.1% 1-MCP and coated sand granules also containing 0.1% 1-MCP. The plants are treated with (1) a single application at the stage of 3-5 fully collared leaves; (2) a single application at the stage of 10 leaves; or (3) two applications with a first application at stage of 3-5 fully collared leaves and a second application at the 10 leaf stage. Dosages of 5 g/hectare, 10 g/hectare, and 25 g/hectare 1-MCP are applied for each of the three different treatment regimes.
The results are presented in Table 1 and FIG. 1 with yield being measured in kg/hectare. For each dosage amount the left bar designates treatment 1 (a single application at the stage of 3-5 fully collared leaves), the middle bar designates treatment 2 (a single application at the stage of 10 leaves), and the right hand bar designates treatment 3 (application at both the stage of 3-5 fully collared leaves and again at the 10 leaf stage). For each of the 5 g/hectare treatment, the 10 g/hectare treatment, and the 25 g/hectare treatment, the yield is increased by more than 150% for plants undergoing two treatments when compared to plants treated only once.

cotton = experiment: Treatment of tropical cotton with single or multiple applications of 1-MCP, seed cotton yield; assay type: in vivo; settings: 9.6 GAI/HA
Method: Four different replicates of treatment of cotton are performed. […] Treatment A designates application of cyclopropene at the stage of Pin Head Square +14 days. Treatment B designates application of cyclopropene at the stage of first flowers. […]

## CC1=CC1 [1-MCP, 1-methylcyclopropene]
Tropical corn; 5 g/ha 1-MCP
  Yield increase in kg/ha, Single app. @ V3-5: 506 kg/ha
  Yield increase in kg/ha, Single app @ V10: 351 kg/ha
  Yield increase in kg/ha, Double app. @ V3&10: 1082 kg/ha
Tropical corn; 5 g/hectare treatment
  yield increase for plants undergoing two treatments compared to plants treated only once: more than 150%
Tropical corn; 10 g/ha 1-MCP
  Yield increase in kg/ha, Single app. @ V3-5: 557 kg/ha
  Yield increase in kg/ha, Single app @ V10: 618 kg/ha
  Yield increase in kg/ha, Double app. @ V3&10: 1580 kg/ha
Tropical corn; 10 g/hectare treatment
  yield increase for plants undergoing two treatments compared to plants treated only once: more than 150%
Tropical corn; 20-25 g/ha 1-MCP
  Yield increase in kg/ha, Single app. @ V3-5: 826 kg/ha
  Yield increase in kg/ha, Single app @ V10: 543 kg/ha
  Yield increase in kg/ha, Double app. @ V3&10: 1539 kg/ha
Tropical corn; 25 g/hectare treatment
  yield increase for plants undergoing two treatments compared to plants treated only once: more than 150%
cotton; average of trials 1-5
  Yield difference between treated plots and untreated checks, Double Applications AB: Floral buds enlarged/Early bloom, average: 713 kg/ha of seed cotton
  Yield difference between treated plots and untreated checks, Double Applications BC: Early bloom/10% of bolls at final size, average: 796 kg/ha of seed cotton
  Yield difference between treated plots and untreated checks, Single Application A: Floral buds distinctly enlarged, average: 577 kg/ha of seed cotton
  Yield difference between treated plots and untreated checks, Single Application B: Early bloom, average: 568 kg/ha of seed cotton
  Yield difference between treated plots and untreated checks, Single Application C: 10% of bolls at final size, average: 512 kg/ha of seed cotton
cotton; individual trials 1-5
  Yield difference between treated plots and untreated checks, Double Applications AB: Floral buds enlarged/Early bloom: 560 kg/ha of seed cotton and 185 kg/ha of seed cotton and 883 kg/ha of seed cotton and 1563 kg/ha of seed cotton and 375 kg/ha of seed cotton
  Yield difference between treated plots and untreated checks, Double Applications BC: Early bloom/10% of bolls at final size: 696 kg/ha of seed cotton and 262 kg/ha of seed cotton and 1042 kg/ha of seed cotton and 1667 kg/ha of seed cotton and 313 kg/ha of seed cotton
  Yield difference between treated plots and untreated checks, Single Application A: Floral buds distinctly enlarged: 571 kg/ha of seed cotton and 167 kg/ha of seed cotton and 767 kg/ha of seed cotton and 1132 kg/ha of seed cotton and 250 kg/ha of seed cotton
  Yield difference between treated plots and untreated checks, Single Application B: Early bloom: 839 kg/ha of seed cotton and 369 kg/ha of seed cotton and 767 kg/ha of seed cotton and 757 kg/ha of seed cotton and 106 kg/ha of seed cotton
  Yield difference between treated plots and untreated checks, Single Application C: 10% of bolls at final size: 780 kg/ha of seed cotton and 280 kg/ha of seed cotton and 792 kg/ha of seed cotton and 715 kg/ha of seed cotton and −6 kg/ha of seed cotton
